Laboratory results reported in patent publication US5008265A, “2-amino-7-(alicyclomethyl)-3H,5H,-pyrrolo[3,2-d]pyrimidin-4-ones and pharmaceutical uses and compositions containing the same” (BioCryst, Inc., priority 1989, dated 1991).
Where two headings read alike, the source gives them in different places.

How the values were obtained:
[1] = biological target: T1, purine nucleoside phosphorylase (PNP) (Bos taurus, UniProt P55859); assay: biochemical; format: biochemical, calf
T1 construct: using calf spleen as the enzyme source; from tissue; host or cells: calf spleen
T1 sequence (P55859 1-289): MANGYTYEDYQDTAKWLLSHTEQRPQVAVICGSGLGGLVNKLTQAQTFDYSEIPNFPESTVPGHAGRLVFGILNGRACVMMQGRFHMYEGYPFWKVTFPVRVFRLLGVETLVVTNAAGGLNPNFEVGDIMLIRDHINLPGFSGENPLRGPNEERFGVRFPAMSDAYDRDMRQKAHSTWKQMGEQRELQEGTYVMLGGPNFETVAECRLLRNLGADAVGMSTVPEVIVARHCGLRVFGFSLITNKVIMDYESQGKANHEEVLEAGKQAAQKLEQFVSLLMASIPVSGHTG
Procedure: The compound of Example 8 is tested for enzyme inhibition activity.

plasma inosine = plasma inosine in Lewis rats after intraperitoneal injection (HPLC); format: in vivo; conditions: 30 mg twice per day, aqueous carrier with ten percent DMSO, vs vehicle controls
Procedure: A pharmaceutical composition for intraperitoneal injection is prepared for testing the compound (IA). An intraperitoneal injection solution containing the compound (IA) is dissolved in an aqueous carrier that contains ten percent DMSO.
The compound (IA) is intraperitoneally injected into Lewis Rats via the test composition of Example 21 to provide 30 mg of the compound (IA), with an injection given twice per day. Controls are used, which receive only the vehicle. At specific times after administration, the animals are sacrificed and plasma samples are prepared. The plasma is extracted with cold 0.5 N HClO4 and neutralized with solid NH4 HCO3. After removal of perchlorate salts, the extract is subjected to HPLC on a reversed phase column (Spherisorb ODSI).
Compounds prepared as in Examples 10-20 are each made into a pharmaceutical formulation in accordance with the preparation of Example 21 and the resultant injectable solutions are tested in accordance with the procedure of Example 22.
A pharmaceutical composition for intraperitoneal injection is prepared for testing the compound (IC). An intraperitoneal injection solution is prepared containing the compound (IC) is dissolved in an aqueous carrier that contains ten percent DMSO. […]

CCRF-CEM cells = assay: potentiation of the toxicity of 2'-deoxyguanosine (d-Guo) in CCRF-CEM cells; format: cell-based; conditions: read-out: IC50, concentration of the compound required to reduce the increase in cell number between 0 and 72 hours to 50% of that of control cultures, with d-Guo at 5.62 μM, RPMI-1640 medium
Procedure: CCRF-CEM cells are grown in RPMI-1640 medium. To a suspension cultures of these cells, d-Guo at a fixed concentration (5.62 μM) and the compound at varied concentrations are added and the number of cells are determined in a Coulter counter 24, 48, and 72 hours thereafter.

[2] = 1 mM phosphate, calf spleen enzyme, read-out: PNP activity (IC50) at 1 mM phosphate
[3] = read-out: PNP activity (IC50) at 50 mM phosphate, 50 mM phosphate, calf spleen enzyme

SMILES	IC50 [1, 2] [nM]	IC50 [1, 3] [nM]	increase in plasma inosine (plasma inosine)	further results
Nc1nc2c(CC3C4CC5CC(C4)CC3C5)c[nH]c2c(=O)[nH]1 (stereo not shown) [Example 8, 2-amino-7-(2-adamantylmethyl)-3H,5H-pyrrolo[3,2-d]pyrimidin-4-one]	90	2500	significant increase in plasma inosine	
Nc1nc2c(CC3CCCC3)c[nH]c2c(=O)[nH]1 [Example 41, 2-amino-7-(cyclopentylmethyl)-3H,5H-pyrrolo[3,2-d]-pyrimidin-4-one]	29	1800	significant increase in plasma inosine	
Nc1nc2c(CC3CCCCC3)c[nH]c2c(=O)[nH]1 [Example 56, 2-amino-7-(cyclohexylmethyl) -3H,5H-pyrrolo[3,2-d]-pyrimidin-4-one]				IC50 (CCRF-CEM cells): 2000 nM
CC1CCCC(Cc2c[nH]c3c(=O)[nH]c(N)nc23)C1 (stereo not shown) [Example 59, 2-amino-7-(3-methylcyclohexylmethyl)-3H,5H-pyrrolo[3,2-d]pyrimidin-4-one]				IC50 ([1]; read-out: PNP activity (IC50) at 1 mM phosphate): 25 nM
Nc1nc2c(CC3CCCCCC3)c[nH]c2c(=O)[nH]1 [Example 70, 2-amino-7-(cycloheptylmethyl)-3H,5H-pyrrolo[3,2-d]pyrimidin-4-one]	30			IC50 ([1]; PNP activity (IC50) at 50 mM phosphate, 50 mM phosphate, calf spleen enzyme): 840 nM
